Patent publication US9650395B2, “Antibacterial compounds and methods for use” (PTC Therapeutics, Inc., priority 2011, dated 2017)
Values after ≈ are worked out from the molar mass of the structure shown. Like-named read-outs stand apart in the source and are kept apart here.

Assays:
[1] = test system: super sensitive Gram-negative Escherichia coli (E. coli) BAS849; assay: Antibacterial activity, microbroth dilution MIC, E. coli BAS849; assay type: cell-based; conditions: Escherichia coli, read-out: MIC, BAS849
[2] = test system: control Gram-negative E. coli 25922 strain; assay: Antibacterial activity, microbroth dilution MIC, E. coli 25922; assay type: cell-based, Escherichia coli; conditions: Escherichia coli; E. coli 25922, microbroth dilution; read-out: MIC, 25922
[3] = test system: Gram-positive Staphylococcus aureus (S. aureus) 29213; assay: Antibacterial activity, microbroth dilution MIC, S. aureus 29213; assay type: cell-based; conditions: Staphylococcus aureus; S. aureus 29213, microbroth dilution; read-out: MIC, 29213
[4] = test system: quinolone resistant E. coli LZ3111; assay: Antibacterial activity, MIC, quinolone resistant E. coli LZ3111; assay type: cell-based, Escherichia coli; conditions: Escherichia coli, read-out: MIC, LZ3111
Excerpt: (§1) The antibacterial activity from a microbroth dilution method may be presented as the minimum inhibitory concentration (MIC in […]). The MIC value is the lowest concentration of a drug which prevents macroscopically visible bacterial growth under test conditions.
Mutations in these regions are known to confer a high level resistance to the quinolone class of antibiotics.

[5] = test system: E. coli ELZ4000 (MDR clinical isolate); assay: Antibacterial activity, MIC, MDR E. coli ELZ4000; assay type: cell-based, Escherichia coli; conditions: Escherichia coli; E. coli ELZ4000, MDR clinical isolate; read-out: MIC ELZ4000
[6] = test system: E. coli ELZ4251 (MDR clinical isolate); assay: Antibacterial activity, MIC, MDR E. coli ELZ4251; assay type: cell-based, Escherichia coli; conditions: Escherichia coli, E. coli ELZ4251, MDR clinical isolate; read-out: MIC ELZ4251
[7] = test system: Pseudomonas aeruginosa (P. aeruginosa) 27853; assay: Antibacterial activity, MIC, P. aeruginosa 27853; assay type: cell-based; conditions: Pseudomonas aeruginosa, P. aeruginosa 27853; read-out: MIC 27853
Excerpt: as §1
Antibacterial activity of test compounds against the Gram-negative bacterium Pseudomonas aeruginosa (P. aeruginosa) 27853 is shown in Table 5.

[8] = E. coli BAS849, microbroth dilution

Compound	MIC [1, 8]	MIC [2]	MIC [3]	MIC [4]	MIC [5]	MIC [6]	MIC [7]	MIC [1]
CCc1c(-c2ccc(N3CC[C@H](F)C3)cc2)[nH]c(=O)c(C(=O)O)c1O [Cpd 85, 5-ethyl-6-{4-[(3S)-3-fluoropyrrolidin-1-yl]phenyl}-4-hydroxy-2-oxo-1,2-dihydropyridine-3-carboxylic acid]	< 1 mg/L	12.5 to 150 mg/L (≈ 36.1 to 433 µM)	3.5 to 12.5 mg/L (≈ 10.1 to 36.1 µM)	12.5 to 150 mg/L (≈ 36.1 to 433 µM)	12.5 to 150 mg/L (≈ 36.1 to 433 µM)	12.5 to 150 mg/L (≈ 36.1 to 433 µM)	12.5 to 150 mg/L (≈ 36.1 to 433 µM)	
CCc1cc(C(=O)O)c(=O)[nH]c1-c1ccc(N2CCC(N=[N+]=[N-])C2)cc1 (stereo not shown) [Cpd 129, 6-[4-(3-azidopyrrolidin-1-yl)phenyl]-5-ethyl-2-oxo-1,2-dihydropyridine-3-carboxylic acid]	< 1 mg/L	1 to 3.5 mg/L (≈ 2.83 to 9.9 µM)	3.5 to 12.5 mg/L (≈ 9.9 to 35.4 µM)	12.5 to 150 mg/L (≈ 35.4 to 424 µM)	12.5 to 150 mg/L (≈ 35.4 to 424 µM)	12.5 to 150 mg/L (≈ 35.4 to 424 µM)	12.5 to 150 mg/L (≈ 35.4 to 424 µM)	
CCc1cc(C(=O)O)c(=O)[nH]c1-c1ccc(N2CCC(N)C2)cc1.O=C(O)C(F)(F)F (stereo not shown) [Cpd 131, 6-[4-(3-aminopyrrolidin-1-yl)phenyl]-5-ethyl-2-oxo-1,2-dihydropyridine-3-carboxylic acid trifluoroacetate]		3.5 to 12.5 mg/L	12.5 to 150 mg/L	12.5 to 150 mg/L	12.5 to 150 mg/L	12.5 to 150 mg/L	12.5 to 150 mg/L	< 1 mg/L
CCc1cc(C(=O)O)c(=O)[nH]c1-c1ccc(N2CCCC2C)cc1 (stereo not shown) [Cpd 139, 5-ethyl-6-[4-(2-methylpyrrolidin-1-yl)phenyl]-2-oxo-1,2-dihydropyridine-3-carboxylic acid]	< 1 mg/L	3.5 to 12.5 mg/L (≈ 10.7 to 38.3 µM)	3.5 to 12.5 mg/L (≈ 10.7 to 38.3 µM)	12.5 to 150 mg/L (≈ 38.3 to 460 µM)	12.5 to 150 mg/L (≈ 38.3 to 460 µM)	12.5 to 150 mg/L (≈ 38.3 to 460 µM)	12.5 to 150 mg/L (≈ 38.3 to 460 µM)	
CCc1cc(C(=O)O)c(=O)[nH]c1-c1ccc(N2CCC(N(C)C)C2)cc1 (stereo not shown) [Cpd 149, 6-{4-[3-(dimethylamino)pyrrolidin-1-yl]phenyl}-5-ethyl-2-oxo-1,2-dihydropyridine-3-carboxylic acid]	< 1 mg/L	1 to 3.5 mg/L (≈ 2.81 to 9.85 µM)	12.5 to 150 mg/L (≈ 35.2 to 422 µM)	12.5 to 150 mg/L (≈ 35.2 to 422 µM)	12.5 to 150 mg/L (≈ 35.2 to 422 µM)	12.5 to 150 mg/L (≈ 35.2 to 422 µM)	12.5 to 150 mg/L (≈ 35.2 to 422 µM)	
CCc1cc(C(=O)O)c(=O)[nH]c1-c1ccc(N2CCC(F)C2)cc1 (stereo not shown) [Cpd 152, 5-ethyl-6-[4-(3-fluoropyrrolidin-1-yl)phenyl]-2-oxo-1,2-dihydropyridine-3-carboxylic acid]	< 1 mg/L	1 to 3.5 mg/L (≈ 3.03 to 10.6 µM)	3.5 to 12.5 mg/L (≈ 10.6 to 37.8 µM)	12.5 to 150 mg/L (≈ 37.8 to 454 µM)	12.5 to 150 mg/L (≈ 37.8 to 454 µM)	12.5 to 150 mg/L (≈ 37.8 to 454 µM)	3.5 to 12.5 mg/L (≈ 10.6 to 37.8 µM)	
CCc1cc(C(=O)O)c(=O)[nH]c1-c1ccc(N2CC[C@H](F)C2)cc1 [Cpd 153, 5-ethyl-6-{4-[(3S)-3-fluoropyrrolidin-1-yl]phenyl}-2-oxo-1,2-dihydropyridine-3-carboxylic acid]	< 1 mg/L	< 1 mg/L	1 to 3.5 mg/L (≈ 3.03 to 10.6 µM)	12.5 to 150 mg/L (≈ 37.8 to 454 µM)	12.5 to 150 mg/L (≈ 37.8 to 454 µM)	12.5 to 150 mg/L (≈ 37.8 to 454 µM)	3.5 to 12.5 mg/L (≈ 10.6 to 37.8 µM)	
CCc1cc(C(=O)O)c(=O)[nH]c1-c1ccc(N(C)c2ccccc2)cc1 [Cpd 158, 5-ethyl-6-{4-[methyl(phenyl)amino]phenyl}-2-oxo-1,2-dihydropyridine-3-carboxylic acid]	< 1 mg/L	3.5 to 12.5 mg/L (≈ 10 to 35.9 µM)	3.5 to 12.5 mg/L (≈ 10 to 35.9 µM)	12.5 to 150 mg/L (≈ 35.9 to 431 µM)	12.5 to 150 mg/L (≈ 35.9 to 431 µM)	12.5 to 150 mg/L (≈ 35.9 to 431 µM)	12.5 to 150 mg/L (≈ 35.9 to 431 µM)	
CCc1cc(C(=O)O)c(=O)[nH]c1-c1ccc(N(C)CCN(C)C)cc1 [Cpd 161, 6-(4-{[2-(dimethylamino)ethyl](methyl)amino}phenyl)-5-ethyl-2-oxo-1,2-dihydropyridine-3-carboxylic acid]	< 1 mg/L	1 to 3.5 mg/L (≈ 2.91 to 10.2 µM)	12.5 to 150 mg/L (≈ 36.4 to 437 µM)	12.5 to 150 mg/L (≈ 36.4 to 437 µM)	12.5 to 150 mg/L (≈ 36.4 to 437 µM)	12.5 to 150 mg/L (≈ 36.4 to 437 µM)		
CC(C)c1cc(C(=O)O)c(=O)[nH]c1-c1ccc(N2CCCC2)cc1 [Cpd 163, 5-isopropyl-2-oxo-6-[4-(pyrrolidin-1-yl)phenyl]-1,2-dihydropyridine-3-carboxylic acid]	< 1 mg/L	3.5 to 12.5 mg/L (≈ 10.7 to 38.3 µM)	12.5 to 150 mg/L (≈ 38.3 to 460 µM)	12.5 to 150 mg/L (≈ 38.3 to 460 µM)	12.5 to 150 mg/L (≈ 38.3 to 460 µM)	12.5 to 150 mg/L (≈ 38.3 to 460 µM)		
O=C(O)c1cc(C2CC2)c(-c2ccc(N3CCCC3)cc2)[nH]c1=O [Cpd 164, 5-cyclopropyl-2-oxo-6-[4-(pyrrolidin-1-yl)phenyl]-1,2-dihydropyridine-3-carboxylic acid]	< 1 mg/L	1 to 3.5 mg/L (≈ 3.08 to 10.8 µM)	3.5 to 12.5 mg/L (≈ 10.8 to 38.5 µM)	12.5 to 150 mg/L (≈ 38.5 to 462 µM)	12.5 to 150 mg/L (≈ 38.5 to 462 µM)	12.5 to 150 mg/L (≈ 38.5 to 462 µM)		
CCc1cc(C(=O)O)c(=O)[nH]c1-c1ccc(N2CCC(NCc3ccccc3)C2)cc1.Cl (stereo not shown) [Cpd 174, 6-{4-[3-(benzylamino)pyrrolidin-1-yl]phenyl}-5-ethyl-2-oxo-1,2-dihydropyridine-3-carboxylic acid hydrochloride]	< 1 mg/L	< 1 mg/L	12.5 to 150 mg/L	12.5 to 150 mg/L	12.5 to 150 mg/L	12.5 to 150 mg/L	12.5 to 150 mg/L	
CCc1cc(C(=O)O)c(=O)[nH]c1-c1ccc(N2CC3NCCOC3C2)cc1.Cl (stereo not shown) [Cpd 179, 5-ethyl-6-[4-(hexahydropyrrolo[3,4-b][1,4]oxazin-6(2H)-yl)phenyl]-2-oxo-1,2-dihydropyridine-3-carboxylic acid hydrochloride]	1 to 3.5 mg/L	3.5 to 12.5 mg/L	12.5 to 150 mg/L	12.5 to 150 mg/L	12.5 to 150 mg/L	12.5 to 150 mg/L		
CCc1cc(C(=O)O)c(=O)[nH]c1-c1ccc(N2CCC(CN(C)Cc3ccccc3)C2)cc1.O=C(O)C(F)(F)F (stereo not shown) [Cpd 183, 6-[4-(3-{[benzyl(methyl)amino]methyl}pyrrolidin-1-yl)phenyl]-5-ethyl-2-oxo-1,2-dihydropyridine-3-carboxylic acid trifluoroacetate]		3.5 to 12.5 mg/L	12.5 to 150 mg/L	12.5 to 150 mg/L	12.5 to 150 mg/L	12.5 to 150 mg/L		< 1 mg/L
CCc1cc(C(=O)O)c(=O)[nH]c1-c1ccc(N2C[C@H]3CC[C@@H](N)[C@H]3C2)cc1.O=C(O)C(F)(F)F [Cpd 202, 6-{4-[(3aR,4R,6aS)-4-aminohexahydrocyclopenta[c]pyrrol-2(1H)-yl]phenyl}-5-ethyl-2-oxo-1,2-dihydropyridine-3-carboxylic acid trifluoroacetate]		12.5 to 150 mg/L	12.5 to 150 mg/L	12.5 to 150 mg/L	12.5 to 150 mg/L	12.5 to 150 mg/L	12.5 to 150 mg/L	1 to 3.5 mg/L
CCc1cc(C(=O)O)c(=O)[nH]c1-c1ccc(N2C[C@H]3CCC[C@H](N)[C@H]3C2)cc1.O=C(O)C(F)(F)F [Cpd 203, 6-{4-[(3aR,4S,7aS)-4-aminooctahydro-2H-isoindol-2-yl]phenyl}-5-ethyl-2-oxo-1,2-dihydropyridine-3-carboxylic acid trifluoroacetate]		12.5 to 150 mg/L	12.5 to 150 mg/L	12.5 to 150 mg/L	12.5 to 150 mg/L	12.5 to 150 mg/L	12.5 to 150 mg/L	1 to 3.5 mg/L
CCc1cc(C(=O)O)c(=O)[nH]c1-c1ccc(N2C[C@H]3CN(Cc4ccccc4)C[C@H]3C2)cc1.Cl [Cpd 206, 6-{4-[(3aR,6aS)-5-benzylhexahydropyrrolo[3,4-c]pyrrol-2(1H)-yl]phenyl}-5-ethyl-2-oxo-1,2-dihydropyridine-3-carboxylic acid hydrochloride]	1 to 3.5 mg/L	3.5 to 12.5 mg/L	12.5 to 150 mg/L	12.5 to 150 mg/L	12.5 to 150 mg/L	12.5 to 150 mg/L		
CCc1cc(C(=O)O)c(=O)[nH]c1-c1ccc(N2C[C@H]3CN(C)C[C@H]3C2)cc1.Cl [Cpd 208, 5-ethyl-6-{4-[(3aR,6aS)-5-methylhexahydropyrrolo[3,4-c]pyrrol-2(1H)-yl]phenyl}-2-oxo-1,2-dihydropyridine-3-carboxylic acid hydrochloride]	1 to 3.5 mg/L	3.5 to 12.5 mg/L	12.5 to 150 mg/L	12.5 to 150 mg/L	12.5 to 150 mg/L	12.5 to 150 mg/L		
CCc1cc(C(=O)O)c(=O)[nH]c1-c1ccc(N2C[C@H](CN)[C@@H](C)C2)cc1 [Cpd 216, 6-{4-[(3S,4R)-3-(aminomethyl)-4-methylpyrrolidin-1-yl]phenyl}-5-ethyl-2-oxo-1,2-dihydropyridine-3-carboxylic acid]	12.5 to 150 mg/L (≈ 35.2 to 422 µM)	12.5 to 150 mg/L (≈ 35.2 to 422 µM)	12.5 to 150 mg/L (≈ 35.2 to 422 µM)	12.5 to 150 mg/L (≈ 35.2 to 422 µM)	12.5 to 150 mg/L (≈ 35.2 to 422 µM)	12.5 to 150 mg/L (≈ 35.2 to 422 µM)	12.5 to 150 mg/L (≈ 35.2 to 422 µM)	
CCc1cc(C(=O)O)c(=O)[nH]c1-c1ccc(N2C[C@H]3CCC[C@H](N=[N+]=[N-])[C@H]3C2)cc1.O=C(O)C(F)(F)F [Cpd 244, 6-{4-[(3aR,4S,7aS)-4-azidooctahydro-2H-isoindol-2-yl]phenyl}-5-ethyl-2-oxo-1,2-dihydropyridine-3-carboxylic acid trifluoroacetate]		12.5 to 150 mg/L	1 to 3.5 mg/L	12.5 to 150 mg/L	12.5 to 150 mg/L	12.5 to 150 mg/L	12.5 to 150 mg/L	< 1 mg/L
